Data taken from patent publication US20260297118A1, “SUBSTITUTED PYRIMIDINONE AND AZAPYRIMIDINONE COMPOUNDS, COMPOSITIONS, AND USES THEREOF” (LAKEWOOD AMEDEX, INC., priority 2023, published 2026).

Columns and labels:
Type in all cases: cell-based
Conditions in all cases: pH 3, Mueller Hinton Broth, 18 to 24 hours, read-out: MIC
[1] = tested on: Staphylococcus aureus (43330); test: MIC, broth microdilution, Staphylococcus aureus (43330)
Experimental: (§1) MIC testing is conducted using the broth (Mueller Hinton Broth) microdilution procedures relevant to each organism group as established by the Clinical and Laboratory Standards Institute (CLSI; 3-7). MIC plates are prepared in accordance with CLSI (3-7). To prepare the test plates, automated liquid handlers are used to conduct serial dilutions and liquid transfers. Automated liquid handlers utilized in this study include the Multidrop 384 (Labsystems, Helsinki, Finland) and the Biomek 2000 (Beckman Coulter, Fullerton CA). The solution is diluted to desired pH using 1 M Citric Acid or 1 M NaOH buffer. A standardized inoculum of each test organism is prepared per CLSI methods (3, 5-7) to equal a 0.5 McFarland standard in the appropriate media followed by an additional 1:20 dilution (1:10 for anaerobes).
(§2) The plates are then inoculated with 10 μL of the diluted 0.5 McFarland suspension using the Biomek 2000 from low to high drug concentration, resulting in a final concentration of approximately 5×10^5 CFU/mL per well. An un-inoculated plate is incubated for the purpose of assessing solubility of the drug in the test media. The plates are stacked 3 to 4 high, covered with a sterile lid on the top plate, and incubated for 18 to 24 hours according to CLSI. The MIC is recorded as the lowest concentration of respective compound that inhibited visible growth of the organism.

Escherichia coli (25922) = test: MIC, broth microdilution, Escherichia coli (25922)
Experimental: as §1, §2

[2] = tested on: Pseudomonas aeruginosa (27853); test: MIC, broth microdilution, Pseudomonas aeruginosa (27853)
Experimental: as §1, §2

Candida albicans (22972) = test: MIC, broth microdilution, Candida albicans (22972)
Experimental: as §1, §2

## CCCCCCCCOP(=O)(O)OC[C@H]1O[C@@H](n2ccc(N)nc2=O)C[C@@H]1O [LAI-001, ((2R,3S,5R)-5-(4-amino-2-oxopyrimidin-1(2H)-yl)-3-hydroxytetrahydrofuran-2-yl)methyl octyl hydrogen phosphate]
[1]
  MIC: 20 mg/mL
Escherichia coli (25922)
  MIC: 20 mg/mL
[2]
  MIC: 20 mg/mL
Candida albicans (22972)
  MIC: 20 mg/mL

## CCCCCCOP(=O)(O)OC[C@H]1O[C@@H](n2ccc(N)nc2=O)C[C@@H]1O [LAI-002, ((2R,3S,5R)-5-(4-amino-2-oxopyrimidin-1(2H)-yl)-3-hydroxytetrahydrofuran-2-yl)methyl hexyl hydrogen phosphate]
[1]
  MIC: 25 mg/mL
Escherichia coli (25922)
  MIC: 25 mg/mL
[2]
  MIC: 5 mg/mL
Candida albicans (22972)
  MIC: 50 mg/mL

## CC(C)COP(=O)(O)OC[C@H]1O[C@@H](n2ccc(N)nc2=O)C[C@@H]1O [LAI-003, ((2R,3S,5R)-5-(4-amino-2-oxopyrimidin-1(2H)-yl)-3-hydroxytetrahydrofuran-2-yl)methyl isobutyl hydrogen phosphate]
[1]
  MIC: 20 mg/mL
Escherichia coli (25922)
  MIC: 20 mg/mL
[2]
  MIC: 20 mg/mL
Candida albicans (22972)
  MIC: 20 mg/mL

## CC(C)CCOP(=O)(O)OC[C@H]1O[C@@H](n2ccc(N)nc2=O)C[C@@H]1O [LAI-004, ((2R,3S,5R)-5-(4-amino-2-oxopyrimidin-1(2H)-yl)-3-hydroxytetrahydrofuran-2-yl)methyl isopentyl hydrogen phosphate]
[1]
  MIC: 50 mg/mL
Escherichia coli (25922)
  MIC: 25 mg/mL
[2]
  MIC: 5 mg/mL
Candida albicans (22972)
  MIC: 50 mg/mL
